Reference: patent US9221822B2, “Thiazolopyrimidine modulators as immunosuppressive agents” (Katholieke Universiteit Leuven, K.U.Leuven R&D, priority 2009, dated 2015)
pIC50: −log10 of the molar value.

tested on: Human peripheral blood mononuclear cells (PBMCs) as Responder cells, RPMI 1788 Stimulator cells; assay: Mixed Lymphocyte Reaction (MLR) test; assay type: cell-based; conditions: Homo sapiens, RPMI-1788, lowest concentration giving 50% inhibition of the MLR; 6 days coculture, 3H-thymidine incorporation
In short: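 Proliferation was read as cpm after a 1 μCi ^3H-thymidine pulse on day 5 and harvest 18 h later, then expressed as % inhibition relative to an MLR without compound. The 6-day triplicate cocultures combined 0.12×10^6 Ficoll-isolated human PBMCs with 0.045×10^6 mitomycin C-inactivated RPMI 1788 cells in RPMI 1640 with 10% FCS.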

| SMILES | pIC50 |
| --- | --- |
| COc1ccc(OCC(=O)N2CCN(c3ncnc4sc(-c5ccc(F)cc5)nc34)CC2)cc1 [Example 300, 1-(4-(2-(4-fluorophenyl)thiazolo[5,4-d]pyrimidin-7-yl)piperazin-1-yl)-2-(4-methoxyphenoxy)ethanone] | 5.26 |
| COc1ccc(OCC(=O)N2CCN(c3nc(N)nc4sc(-c5ccccc5)nc34)CC2)cc1 [Example 208, 1-(4-(5-amino-2-phenylthiazolo[5,4-d]pyrimidin-7-yl)piperazin-1-yl)-2-(4-methoxyphenoxy)ethanone] | 7.38 |
| Nc1nc(N2CCN(c3nccs3)CC2)c2nc(-c3ccc(F)cc3)[nH]c2n1 [Example 409, 8-(4-fluorophenyl)-6-(4-(thiazol-2-yl)piperazin-1-yl)-9H-purin-2-amine] | 5.13 |
| COCCN1CCN(c2nc(N)nc3oc(-c4ccc(F)cc4)nc23)CC1 [Example 192, 5-amino-2-(4-fluorophenyl)-7-[4-(2-methoxyethyl)-piperazin-1-yl]-oxazolo[5,4-d]pyrimidine] | < 5.00 |
| N#Cc1ccc(NC(=O)N2CCN(c3nc(N)nc4sc(Cc5ccc(F)cc5)nc34)CC2)cc1 [Example 232, 4-(5-amino-2-(4-fluorobenzyl)thiazolo[5,4-d]pyrimidin-7-yl)-N-(4-cyanophenyl)piperazine-1-carboxamide] | 6.07 |
| Nc1nc(N2CCN(C(=O)COc3ccc(Cl)cc3)CC2)c2nc(-c3ccc(F)cc3)n(Cc3ccccc3)c2n1 [Example 431, 1-(4-(2-amino-9-benzyl-8-(4-fluorophenyl)-9H-purin-6-yl)piperazin-1-yl)-2-(4-chlorophenoxy)ethanone] | < 5.00 |
| Cc1cccc(NC(=O)N2CCCN(c3nc(N)nc4[nH]c(-c5ccc(F)cc5)nc34)CC2)c1 [Example 422, 4-(2-amino-8-(4-fluorophenyl)-9H-purin-6-yl)-N-m-tolyl-1,4-diazepane-1-carboxamide] | 5.93 |
| Nc1nc(N2CCC(C(=O)c3ccccc3)CC2)c2nc(CCc3ccc(F)cc3)sc2n1 [Example 148, 5-amino-2-[2-(4-fluorophenyl)ethyl]-7-(4-benzoylpiperidine-1-yl)-thiazolo[5,4-d]pyrimidine] | 5.58 |
| N#Cc1ccc(NC(=O)N2CCN(c3nc(N)nc4sc(-c5ccc(F)cc5)nc34)CC2)cc1 [Example 216, 4-(5-amino-2-(4-fluorophenyl)thiazolo[5,4-d]pyrimidin-7-yl)-N-(4-cyanophenyl)piperazine-1-carboxamide] | 7.72 |
| Nc1nc(N2CCN(C(=O)Cc3ccc(Cl)cc3)CC2)c2nc(CCc3cccs3)sc2n1 [Example 155, 5-amino-2-(2-thiophen-2-ylethyl)-7-(4-[2-(4-chloro-phenyl)acetyl]piperazin-1-yl)thiazolo[5,4-d]pyrimidine] | < 5.00 |
| O=C(COc1ccc(Cl)cc1)N1CCN(c2ncnc3sc(CCc4ccc(F)cc4)nc23)CC1 [Example 303, 1-(4-(2-(4-fluorophenethyl)thiazolo[5,4-d]pyrimidin-7-yl)piperazin-1-yl)-2-(4-chlorophenoxy)ethanone] | 5.25 |
| Nc1nc(N2CCN(C(=O)COc3ccc(Cl)cc3)CC2)c2nc(CCc3cccs3)sc2n1 [Example 154, 5-amino-2-(2-thiophen-2-ylethyl)-7-(4-[2-(4-chloro-phenoxy)acetyl]piperazin-1-yl)thiazolo[5,4-d]pyrimidine] | 6.10 |
| CC(C)(Oc1ccc(Cl)cc1)C(=O)N1CCN(c2nc(N)nc3sc(-c4cccnc4)nc23)CC1 [Example 274, 1-(4-(5-amino-2-(pyridin-3-yl)thiazolo[5,4-d]pyrimidin-7-yl)piperazin-1-yl)-2-(4-chlorophenoxy)-2-methylpropan-1-one] | < 5.00 |
| Nc1nc(N2CC[C@@H](NC(=O)c3ccc(Cl)cc3)C2)c2nc(CCc3ccc(F)cc3)sc2n1 [Example 144, 5-amino-2-[2-(4-fluorophenyl)ethyl]-7-(3-(R)-(4-chlorobenzoylamino)-pyrrolidin-1-yl)-thiazolo[5,4-d]pyrimidine] | 5.29 |
| Nc1nc(N2CCN(C(=O)COc3ccc(Cl)cc3)CC2)c2nc(C3CCCCC3)sc2n1 [Example 120, 5-amino-7-[4-(4-chlorophenoxyacetyl)piperazin-1-yl]-2-cyclohexylthiazolo[5,4-d]pyrimidine] | 6.08 |
| Nc1nc(N2CCN(C(=O)COc3ccc(Cl)cc3)CC2)c2nc(Nc3ccc(F)cc3)sc2n1 [Example 127, 5-amino-7-[4-(4-chlorophenoxyacetyl)piperazin-1-yl]-2-(4-fluorophenylamino)-thiazolo[5,4-d]pyrimidine] | 5.17 |
| Nc1nc(N2CCN(S(=O)(=O)Cc3ccccc3)CC2)c2nc(CCc3ccc(F)cc3)sc2n1 [Example 137, 5-amino-2-[2-(4-fluorophenyl)ethyl]-7-[4-phenylmethanesulfonylpiperazin-1-yl]-thiazolo[5,4-d]pyrimidine] | 5.18 |
| CCCSc1nc2c(N3CCN(C(=O)COc4ccc(Cl)cc4)CC3)nc(N)nc2[nH]1 [Example 425, 1-(4-(2-amino-8-(propylthio)-9H-purin-6-yl)piperazin-1-yl)-2-(4-chlorophenoxy)ethanone] | 5.99 |
| Nc1nc(N2CCN(C(=O)COc3ccc(O)cc3)CC2)c2nc(CCc3ccc(F)cc3)sc2n1 [Example 224, 1-(4-(5-amino-2-(4-fluorophenethyl)thiazolo[5,4-d]pyrimidin-7-yl)piperazin-1-yl)-2-(4-hydroxyphenoxy)ethanone] | 5.96 |
| Nc1nc(N2CCN(C(=O)COc3ccccc3)CC2)c2nc(CCc3ccc(F)cc3)sc2n1 [Example 134, 5-amino-2-[2-(4-fluorophenyl)ethyl]-7-(4-[2-phenoxyacetyl]piperazin-1-yl)-thiazolo[5,4-d]pyrimidine] | 5.31 |
| Nc1nc(N2CCN(C(=O)CCc3ccccc3)CC2)c2cc(-c3ccc(F)cc3)sc2n1 [Example 343, 1-(4-(2-amino-6-(4-fluorophenyl)thieno[2,3-d]pyrimidin-4-yl)piperazin-1-yl)-3-phenylpropan-1-one] | 5.16 |
| Nc1nc(N2CCC(C(=O)c3ccccc3)CC2)c2cc(-c3ccc(F)cc3)sc2n1 [Example 348, (1-(2-amino-6-(4-fluorophenyl)thieno[2,3-d]pyrimidin-4-yl)piperidin-4-yl)(phenyl)methanone] | 5.08 |
| Nc1nc(N2CCN(C(=O)COc3ccc(Br)cc3)CC2)c2nc(CCc3ccc(F)cc3)sc2n1 [Example 52, 1-(4-(5-amino-2-(4-fluorophenethyl)thiazolo[5,4-d]pyrimidin-7-yl)piperazin-1-yl)-2-(4-bromophenoxy)ethanone] | < 5.00 |
| Cc1cccc(NC(=O)N2CCN(c3nc(N)nc4sc(-c5cccnc5)nc34)CC2)c1 [Example 276, 4-(5-amino-2-(pyridin-3-yl)thiazolo[5,4-d]pyrimidin-7-yl)-N-m-tolylpiperazine-1-carboxamide] | 9.00 |
| Nc1nc(N2CCN(C(=O)Nc3ccc(Cl)cc3)CC2)c2nc(-c3cccnc3)sc2n1 [Example 277, 4-(5-amino-2-(pyridin-3-yl)thiazolo[5,4-d]pyrimidin-7-yl)-N-(4-chlorophenyl)piperazine-1-carboxamide] | 7.62 |
